From US6605609B2, “Thizaine oxazolidinone” (Pharmacia & Upjohn Company, priority 2000, dated 2003)
Values after ≈ are worked out from the molar mass of the structure shown.

Experiments:
[1] = test system: S. aureus (52 isolates), methicillin-resistant; test: MIC by agar dilution (MIC90); type: cell-based, Staphylococcus aureus; conditions: minimum inhibitory concentration required to inhibit 90% of the isolates
Description: The in vitro activity of the compound of this invention can be assessed by standard testing procedures such as the determination of minimum inhibitory concentration (MIC) by agar dilution as described in “Approved Standard. Methods for Dilution Antimicrobial Susceptibility Tests for Bacteria That Grow Aerobically”, 3rd. ed., published 1993 by the National Committee for Clinical Laboratory Standards, Villanova, Pa., USA.

[2] = Loss during and following terminal moist heat sterilization in container; type: physicochemical; conditions: container-solution contact surface made of at least 50% polyolefin
Description: When terminally moist heat sterilizing an IV solution, the solution is placed in the container in which (1) it will be stored and then transferred to the container from which it will ultimately be administered, or (2) stored and then ultimately administered from the same container to deliver the IV solution to the patient. […] What is essential is that the container-solution contact surface material be primarily a polyolefin; the remainder of the container can be made from polyolefin or other materials. It is preferred that the container-solution contact surface is made of from about 50 to about 100% polyolefin. It is more preferred that the container-solution contact surface is made of from about 70 to about 90% polyolefin. It is more preferred that the container-solution contact surface is made of from about 80% polyolefin. It is even more preferred that the container-solution contact surface is made of polyolefin.

MIC90 S. aureus (52 isolates), methicillin-resistant [1] [µg/mL] | loss of the compound during and following terminal moist heat sterilization [2] | melting point [°C] | SMILES
4 (≈ 11.9 µM) | – | – | CC(=O)NC[C@H]1CN(c2ccc(N3CCOCC3)c(F)c2)C(=O)O1 [linezolid, reference compound]
2 | significantly much less loss | 187 to 189.5 | CC(=O)NC[C@H]1CN(c2cc(F)c(N3CCS(=O)(=O)CC3)c(F)c2)C(=O)O1 [The compound of formula I, N-({(5S)-3-[4-(1,1-dioxido-4-thiomorpholinyl)-3,5-difluorophenyl]-2-oxo-1,3-oxazolidin-5-yl}methyl)acetamide]
